Measurements taken from ChEMBL document CHEMBL1151544, “Biarylcarboxamide inhibitors of phosphodiesterase IV and tumor necrosis factor-” (Bioorg Med Chem Lett, 1997).

Experiments:
Homo sapiens = species on record: Homo sapiens; test: Ability to block the release of TNF-alpha in human whole blood; assay type: functional
U-937 = test: Ability to elevate intracellular levels of cAMP in human U937 cells; assay type: functional, cell-based
[1] = Ability to block the release of TNF-alpha in human monocytes; assay type: functional, cell-based
Mus musculus [2] = test: Inhibition of LPS stimulated TNF-alpha release in mice at 10 mg/kg; assay type: functional
Mus musculus [3] = test: Inhibition of LPS stimulated TNF-alpha release in mice at 1 mg/kg; assay type: functional
Phosphodiesterase 4 = Phosphodiesterase 4 (Homo sapiens, UniProt P27815+Q08499+Q07343+Q08493); test: Tested for its ability to inhibit the hydrolysis of cAMP by human monocyte cytosol phosphodiesterase; assay type: protein assay

Row | SMILES | IC50 (U-937) [nM] | IC50 [1] [nM] | other results
1 | COc1ccc([C@]2(C#N)CC[C@@H](C(=O)O)CC2)cc1OC1CCCC1 [CILOMILAST] | 3630 | 290 | IC50 (Homo sapiens): 6120 nM; inhibition in vivo at 10 mg/kg (Mus musculus [2]): 59.4%
2 | COc1ccc(C2CNC(=O)C2)cc1OC1CCCC1 (stereo not given) [ROLIPRAM] | 1230 | 310 | inhibition in vivo at 1 mg/kg (Mus musculus [3]): 68%
3 | COc1ccc(-c2ccc(C(N)=O)nc2)cc1O[C@H]1CC2CCC1C2 (stereo not given in full) | 49 | 9 | IC50 (Homo sapiens): 140 nM; IC50 (Phosphodiesterase 4): 1070 nM
4 | COc1ccc(-c2ccc(C(N)=O)nc2)cc1OCCc1ccccc1 |  | 180 | 
5 | COc1ccc(-c2ccc(C(N)=O)c(C(F)(F)F)c2)cc1OC1CCCC1 |  | 1170 | 
6 | COc1ccc(-c2ccc(C(=O)O)cc2)cc1O[C@H]1CC2CCC1C2 (stereo not given in full) |  | 140 | 
7 | COc1ccc(-c2ccc(C(N)=O)nc2)cc1OC1Cc2ccccc2C1 |  | 120 | 
8 | COc1ccc(-c2ccc(C(N)=O)nc2)cc1OCCCc1ccccc1 |  | 2310 | 
9 | COc1ccc(-c2ccc(C(N)=O)cc2)cc1OC1Cc2ccccc2C1 |  | 320 | 
10 | COc1ccc(-c2ccc(C(N)=O)cc2)cc1O[C@H]1CC2CCC1C2 (stereo not given in full) | 22 | 24 | IC50 (Homo sapiens): 180 nM; IC50 (Phosphodiesterase 4): 3610 nM

More lines, main results first:

Row | IC50 (U-937) [nM] | IC50 [1] [nM] | SMILES | other results
11 | 46 | 37 | COc1ccc(-c2ccc(C(N)=O)nc2)cc1OC1CCCC1 | inhibition in vivo at 1 mg/kg (Mus musculus [3]): 65.2%; IC50 (Homo sapiens): 180 nM; IC50 (Phosphodiesterase 4): 340 nM
12 |  | 190 | COc1ccc(-c2ccc(C(N)=O)c(C)c2)cc1OC1CCCC1 | 
13 |  | 80 | COc1ccc(-c2ccc(C(N)=O)cn2)cc1OC1CCCC1 | 
14 |  | 82 | COc1ccc(-c2ccc(C(N)=O)c(Cl)c2)cc1OC1CCCC1 | 
15 |  | 360 | COc1ccc(-c2ncc(C(N)=O)cc2Cl)cc1OC1CCCC1 | 
16 | 81 | 26 | COc1ccc(-c2ccc(C(N)=O)cc2)cc1OC1CCCC1 | IC50 (Homo sapiens): 450 nM; IC50 (Phosphodiesterase 4): 5910 nM
17 |  | 260 | COc1ccc(-c2ccc(C(N)=O)cc2Cl)cc1OC1CCCC1 | 
